{"source": "patent US7193044B1", "about": "“Compounds and methods for regulating apoptosis, and methods of making and screening for compounds that regulate apoptosis” (Immunogen, Inc., priority 2000, dated 2007)", "key": {"[1]": {"test_system": "BAD Ser155 phosphorylation in HeLa cells", "test": "BAD phosphorylation in HeLa cells (western blot band-shift / anti-phospho-Ser155 antibody)", "format": "cell-based, human", "description": "A mammalian expression vector encoding mutant HA-BAD S155A, derived from the shorter murine BAD of SEQ ID NO:3, was constructed. HA-BAD S155A has an amino acid sequence wherein the serine at a position corresponding to Ser155 is substituted with alanine. A western blot was performed on WCL prepared from cells expressing the shorter murine BAD (SEQ ID NO:3), HA-BAD S112A, HA-BAD S136A, or HA-BAD S155A, and probed with anti-HA antibody.\nA western blot analysis, probed with anti-HA antibody, was performed on lysates produced from the Forskolin treated and untreated (control) cells to determine whether Forskolin could induce the phosphorylation BAD or mutant BAD.\nHeLa cells transiently expressing HA-BAD, HA-BAD S155A, HA-BAD S112A/S136A, or HA-BAD S112A/S136A/S155A were treated with Forskolin or a buffer control.\nThe HA-BAD S112A/S136A double mutant was transiently expressed in HeLa cells, and transfected cell cultures were treated with each of the GPCR ligands, individually and as a group. A western blot analysis, probed with anti-HA antibody, was performed on lysates produced from the treated and untreated (negative control) cells. […] Forskolin (FK) and no treatment (−) were positive and negative controls, respectively (FIG. 6(a), […], respectively).\nNon-transfected HeLa cells were treated with Forskolin or L-epinephrine, followed by western blot analysis of cell lysates using anti-BAD antibodies.\nTransformants were treated with L-epinephrine, then lysed and subjected to anti-HA western blot analysis.\n(§1) To further test whether phosphorylation of Ser155 is dependent on the PI 3-kinase/Akt pathway, HeLa cells were transfected with the mutant HA-BAD S155A and pretreated with Wortmannin, an inhibitor of PI 3-kinase. These cells were then stimulated with epidermal growth factor (EGF), lysed and analyzed by western blot analysis.\nFor immunoprecipitation of all HA-BAD species, 1 μg of the anti-HA antibody was added to the cell lysates, and incubated at 4° C. for one hour. Protein G agarose (Pierce) was then added (50 μl/fraction of 50% slurry) and followed by a one hour incubation at 4° C. Beads were washed with RIPA buffer, boiled in loading buffer (2% SDS, 10% glycerol, 5% β-ME, 60 mM Tris, pH 6.8, 0.002% Bromophenol Blue) and loaded onto polyacrylamide gels. After electrophoresis, proteins were transferred to nitrocellulose membranes, and blots blocked in western wash buffer (40 mM Tris, pH 8.0, 150 mM NaCl, 0.2% NP-40) with 5% BSA for one hour at room temperature. Blots were incubated with primary antibody diluted in western wash buffer with 3% BSA at room temperature for 1–2 hours, washed with western wash buffer and incubated with secondary HRP-coupled antibody diluted in western wash buffer with 1.5% BSA, and washed extensively. Polypeptides were detected with the ECL chemiluminescence according to the manufacturers instructions (Amersham)."}, "[2]": {"test_system": "BAD phosphorylation in Rat-1 cells", "test": "BAD phosphorylation in Rat-1 cells (western blot band-shift / anti-phospho-Ser155 antibody)", "format": "cell-based", "excerpt": "In the absence of a phospho-Ser155 antibody, it was difficult to conclude that this band-shift was solely the result of the phosphorylation of Ser155. However, it appeared that this response was at least primarily due to the phosphorylation at this site. This was based on the combined evidence, both in vitro and in cells, as described above (FIGS. 1, 2 and 4–7) and the fact that Ser155 is the only site of BAD homologous to the substrate consensus sequence of PKA.\nWhether the BAD Ser155 kinase, PKA, is also activated by growth factors, and if so, whether such activation is PI 3-kinase dependent, was investigated. […] Cell lysates were analyzed via western blot analysis, probed using anti-HA antibody. […] However, the magnitude of phosphorylation was weaker and may be more transient, than the effect of Forskolin (FIG. 9(a)). Of note, Ser155 phosphorylation following IGF-1, EGF, or PDGF stimulation was not detected in HeLa cells (results not shown).\n(§2) It has been documented that Akt kinase activity, the serine kinase shown to phosphorylate BAD Ser136, is induced by growth factors and is dependent on PI 3-kinase activation (Datta et al., 1997; del Peso et al., 1997). In related experiments, Rat-1 cells were pretreated with either the PKA inhibitor H89, or the PI 3-kinase inhibitor Wortmannin (available, e.g., from Sigma, St. Louis, Mo.), followed by stimulation with Forskolin (also available from Sigma) or PDGF. […] This indicated the shift was PKA dependent (FIG. 9(b), lower panel, compare lanes 5 and 6). […] It therefore presumably had no effect on PDGF-induced activation of PI 3-kinase.\nTo examine whether endogenous BAD is phosphorylated on Ser155 in response to growth factors, serum-starved Rat-1 fibroblasts were stimulated with PDGF. Whole cell lysates were prepared and endogenous BAD was immunoprecipitated. Proteins were separated by SDS-PAGE, and Ser155 phosphorylation was analyzed by Western blot using the phospho-S155 antibody and an anti-BAD antibody."}, "Akt [3]": {"test_system": "Akt", "test": "Akt activation in Rat-1 cells (anti-phospho-S473 Akt western blot)", "format": "cell-based", "settings": "pretreatment then PDGF", "description": "FIG. 9(B) is two western blots. Rat-1 cells transiently expressing HA-BAD S112A/S136A were treated with a buffer control, H89 (PKA inhibitor) or Wortmannin (PI 3-kinase inhibitor), prior to stimulation with Forskolin or platelet-derived growth factor (“PDGF”). Whole cell lysates were then prepared and proteins were separated by SDS-PAGE. Blots were separately probed with an anti-phospho-S473 Akt antibody (the kinase that phosphorylates Ser136) (upper panel) and an anti-BAD antibody (lower panel).\nas §2"}, "Akt [4]": {"test_system": "Akt", "test": "Akt activation in HeLa cells (anti-phospho-S473 Akt western blot)", "format": "cell-based, human", "settings": "serum-starved HeLa cells, pretreatment then EGF", "excerpt": "FIG. 10(B) is a series of western blots. Serum-starved HeLa cells expressing HA-BAD S155A, were pretreated with a buffer control (lanes 1 and 2), AG1478 (“AG”) (lane 3), Wortmannin (“Wm”) (lane 4), or H89 (lane 5). The cell cultures were then stimulated with a buffer control (lane 1) or EGF (lanes 2–5). Whole cell lysates were made from the cultures and the proteins were separated by SDS-PAGE. Blots were probed with either an anti-activated EGF receptor antibody (“activated EGFR”) (panel A), an anti-phospho-S473 Akt antibody (“pS473 Akt”) (panel B), or an anti-phospho-S155 BAD antibody (“pS155 BAD”) (panel D). Reblots were probed with either an anti-Akt antibody (“Akt”) (panel C) or an anti-HA BAD antibody (“HA-BAD”) (panel E).\nas §1"}, "HeLa cells [5]": {"test_system": "HeLa cells", "test": "Beta-gal ELISA apoptosis assay in transfected HeLa cells", "format": "cell-based, human", "settings": "transfected cells, data not shown", "description": "Because BAD Ser155 phosphorylation, like Ser136 phosphorylation, prevents BAD from binding to Bcl-XL (FIG. 1), it was possible that by analogy, Ser155 dephosphorylation promotes cell death. To test this idea, HeLa cells were co-transfected with BAD or various BAD serine mutants and a β-gal reporter plasmid. Twenty-four hours post-transfection, cell viability was analyzed by β-gal ELISA.\nTo test this idea, HeLa cells were again co-transfected with BAD or various BAD serine mutants and a β-gal reporter plasmid. Forskolin was then added to half of the cultures while the other half was left untreated. Beta-gal ELISAs were performed 24 hours post transfection. […] Thus, phosphorylation of Ser155 rescues cells from BAD-induced apoptosis, while substitution of Ser155 with a nonphosphorylatable residue results in increased cell death and the failure of cells to be protected from induced PKA activity.\nBeta-gal ELISA assays were performed using the β-gal ELISA system from Boehringer Mannheim, according to manufacture's instructions. Cells were transfected with BAD (or BAD mutant) and β-gal in a ratio of 5:1. The transfected cells were trypsinized and distributed into 96-well tissue culture plates. […] The β-gal activity was measured by the absorbance of the sample at […]. Data were based on triplicate wells with standard deviations calculated."}, "HeLa cells [6]": {"test_system": "HeLa cells", "test": "Fluorescence-based beta-galactosidase assay of BAD-induced cell death in transfected HeLa cells", "set-up": "species or system human", "description": "FIG. 12(B) is a graphic representation of the results of a β-galactosidase assay. HeLa cells were co-transfected with the β-galactosidase gene and either HA-BAD (“WT”), HA-BAD S155A (“S155A”), HA-BAD S112A/S136A (“S112A/S136A”) or HA-BAD S112A/S136A/S155A (“AAA”). Transfected cells were then cultured in serum-free medium (SFM) or SFM supplemented with EGF (SFM+EGF) for 12 hours. Cell lysates were prepared and BAD-induced cell death was measured by the loss of β-galactosidase activity in a fluorescence-based assay. Fluorescence was measured at 465 nm. Results shown are the average and standard deviation of triplicate transfections (this experiment was repeated two more times with similar results). Expression levels of HA-tagged BAD and BAD mutants in transfected cell lysates were detected by anti-HA western blot analysis: HA-BAD (“WT”), HA-BAD S155A (“A”), HA-BAD S112A/S136A (“AA”), and HA-BAD S112A/S136A/S155A (“AAA”).\nFIG. 12(C) is a graphic representation of the results of a β-galactosidase assay. HeLa cells were co-transfected with the β-galactosidase gene and either an empty vector (“CTL”), wild-type BAD (“WT”), the BAD S155A mutant (“S155A”) or the BAD S155D mutant (“S155D”). Cell lysates were prepared and BAD-induced cell death was measured by the loss of β-galactosidase activity in a fluorescence-based assay. Fluorescence was measured at 465 nm. […]"}}, "note": "Entries after “also recorded” stand apart in the source; their conditions may differ. Residues, ends and D or L forms follow the SMILES beside them. *: point of attachment. Cbz = O=C(OCc1ccccc1)*; CH2F = FC*", "data": [{"compound": "O=S(=O)(NCCNC/C=C/c1ccc(Br)cc1)c1cccc2cnccc12", "note": "[H89, reference compound]", "values": [{"measurement": "inhibition of L-epinephrine-induced band-shift of endogenous BAD", "setting": "[1]; HeLa cells", "value": "band-shift was sensitive to the PKA inhibitor, H89; also recorded: blocked L-epinephrine-induced BAD phosphorylation"}, {"measurement": "basal phosphorylation of endogenous BAD", "setting": "[1]; HeLa cells, treatment for one hour", "value": "reduced basal phosphorylation of endogenous BAD"}, {"measurement": "inhibition of EGF-induced phosphorylation of BAD on Ser155", "setting": "[1]; serum-starved HeLa cells transfected with HA-BAD S155A (so in the source), pretreatment then EGF, anti-phospho-S155 blot", "value": "BAD Ser155 phosphorylation was prevented"}, {"measurement": "inhibition of L-epinephrine-induced Ser155 phosphorylation of HA-BAD S112A/S136A", "setting": "[1]; transfected HeLa cells", "value": "inhibitory effect of H89"}, {"measurement": "inhibition of Forskolin-induced BAD band-shift", "setting": "[2]; Rat-1 cells", "value": "sensitive to the PKA inhibitor H89"}, {"measurement": "inhibition of PDGF-induced BAD band-shift/phosphorylation", "setting": "[2]; Rat-1 cells, pretreatment then PDGF", "value": "significantly reduced"}, {"measurement": "inhibition of PDGF-induced Ser155 phosphorylation of endogenous BAD", "setting": "[2]; serum-starved Rat-1 cells, pretreatment", "value": "significantly reduced"}, {"measurement": "effect on PDGF-induced Akt activation", "setting": "Akt [3]", "value": "no effect on PDGF-induced Akt activation"}, {"measurement": "effect on EGF-induced activation/phosphorylation of endogenous Akt", "setting": "Akt [4]", "value": "without affecting the phosphorylation of Akt"}]}, {"compound": "CC(NC(=O)C(NC(=O)OCc1ccccc1)C(C)C)C(=O)NC(CC(=O)O)C(=O)CF", "note": "(stereo not drawn) [z-VAD, reference compound] (Cbz-Val-Ala-Asp-CH2F; configuration not given here)", "values": [{"measurement": "protection from BAD-induced apoptosis", "setting": "HeLa cells [5]", "value": "efficiently protected the cells"}, {"measurement": "reversal of BAD-induced reduction of beta-gal activity", "setting": "HeLa cells [6]", "value": "reversed"}]}, {"compound": "EGF: epidermal growth factor", "values": [{"measurement": "Ser155 phosphorylation following growth factor stimulation", "setting": "[1]; HeLa cells, results not shown", "value": "not detected"}, {"measurement": "induction of Ser155 phosphorylation of HA-BAD S112A/S136", "setting": "[1]; serum-starved transfected HeLa cells", "value": "stimulated the phosphorylation of BAD on Ser155"}, {"measurement": "induction of band-shift of HA-BAD S112A/S136A", "setting": "[2]; transfected Rat-1 fibroblasts", "value": "induced a band-shift"}, {"measurement": "suppression of pro-apoptotic function of BAD", "setting": "HeLa cells [6]; serum-free medium plus EGF for 12 hours", "value": "suppressed the pro-apoptotic function of BAD"}]}]}
